Reference: patent US7417045B2, “Heterocyclic substituted pyridine or phenyl compounds with CXCR3 antagonist activity” (Schering Corporation, priority 2005, dated 2008)

What follows are molecules tested against T1, human CXCR3 (N-delta 4) (Homo sapiens, UniProt P49682) (assay: Human CXCR3 (N-delta 4) Scintillation Proximity Assay (SPA), [125I] IP-10 binding). Details: IC50 rating; [125I] IP-10 displacement, Ba/F3-hCXCR3 (N-delta 4) membranes.
T1 construct: CD8 leader (N); Flag tag; expressed in transfected cells; membranes
T1 sequence (P49682 5-368 limits assumed): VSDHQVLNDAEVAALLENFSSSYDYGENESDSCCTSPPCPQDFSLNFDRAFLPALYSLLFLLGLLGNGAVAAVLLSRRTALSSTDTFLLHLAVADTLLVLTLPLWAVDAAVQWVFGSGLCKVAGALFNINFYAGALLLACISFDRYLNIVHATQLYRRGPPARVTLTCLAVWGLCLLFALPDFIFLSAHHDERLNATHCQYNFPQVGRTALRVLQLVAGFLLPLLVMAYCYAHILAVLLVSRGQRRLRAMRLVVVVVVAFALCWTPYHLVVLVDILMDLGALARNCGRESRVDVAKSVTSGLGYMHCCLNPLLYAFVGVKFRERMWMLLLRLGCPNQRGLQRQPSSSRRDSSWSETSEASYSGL
From the text: The inventive compounds can readily be evaluated to determine activity at The CXCR3 receptors by known methods, such as, for example, Development of Human CXCR3 (N-delta 4) Binding Assay.
Cloning and Expression of Human CXCR3 (N-Delta 4):
The DNA encoding human CXCR3 was cloned by PCR using human genomic DNA (Promega, Madison, Wis.) as a template. The PCR primers were designed based on the published sequence of human orphan receptor GPR9 (1) with incorporated restriction sites, a Kozak consensus sequence, CD8 leader and Flag tag. The PCR product was subcloned into the mammalian expression vector pME18Sneo, a derivative of the SR-alpha expression vector (designated as pME18Sneo-hCXCR3 (N-delta 4).
IL-3-dependent mouse pro-B cells Ba/F3 were transfected by electroporation in 0.4 ml Dulbecco's PBS containing 4×10^6 cells with 20 μg of pME18Sneo-hCXCR3 (N-delta 4) plasmid DNA. Cells were pulsed at 400 Volts, 100 OHMs, 960 μFd. The transfected cells were under selection with 1 mg/ml G418 (Life Technologies, Gaithersburg, Md.). G418-resistant Ba/F3 clones were screened for CXCR3 expression by specific binding of [^125I] IP-10 (NEN Life Science Products, Boston, Mass.).
Preparation of Ba/F3-hCXCR3 (N-Delta 4) Membranes
Ba/F3 cells expressing human CXCR3 (N-delta 4) were pelleted and resuspended in the lysis buffer containing 10 mM HEPES, pH 7.5 and Complete® protease inhibitors (1 tablet per 100 ml) (Boehringer Mannheim, Indianapolis, Ind.) at a cell density of 20×10^6 cells per ml. After 5 minutes incubation on ice, cells were transferred to 4639 cell disruption bomb (Parr Instrument, Moline, Ill.) and applied with 1,500 psi of nitrogen for 30 minutes on ice. Large cellular debris was removed by centrifugation at 1,000× g. Cell membrane in the supernatant was sedimented at 100,000× g. The membrane was resuspended in the lysis buffer supplemented with 10% sucrose and stored at −80° C. Total protein concentration of the membrane was determined by BCA method from Pierce (Rockford, Ill.).
Human CXCR3 (N-Delta 4) Scintillation Proximity Assay (SPA)
For each assay point, 2 μg of membrane was preincubated for 1 hr with 300 μg wheat germ agglutinin (WGA) coated SPA beads (Amersham, Arlington Heights, Ill.) in the binding buffer (50 mM HEPES, 1 mM CaCl2, 5 mM MgCl2, 125 mM NaCl, 0.002% NaN3, 1.0% BSA) at room temperature. The beads were spun down, washed once, resuspended in the binding buffer and transferred to a 96-well Isoplate (Wallac, Gaithersburg, Md.). 25 pM of [^125I] IP-10 with tested compounds in a series of titration were added to start the reaction. After 3 hr reaction at room temperature, the amount of [^125I] IP-10 bound to the SPA beads was determined with a Wallac 1450 Microbeta counter.

Going from CC[C@H]1CN(c2ncc(-c3nccn3C(=O)c3ccc(Cl)cc3)cc2Cl)CCN1C1CCN(C(=O)c2ccc(Cl)cc2)CC1 [Compound 55] to CC[C@H]1CN(c2ncc(C3=NCCN3C(=O)c3ccc(Cl)cc3)cc2Cl)CCN1C1CCN(C(=O)c2ccc(Cl)cc2)CC1 [Compound 146], the IC50 rises from under 25 nM to over 100 nM.

Compared with CC[C@H]1CN(c2ncc(-c3ncc[nH]3)cc2Cl)CCN1[C@@H]1CCN(Cc2ccc(Cl)cc2C(=O)NC)C[C@H]1O [Compound 170], CC[C@H]1CN(c2ncc(-c3ncc[nH]3)cc2Cl)CCN1C1CCN(Cc2ccc(Cl)cc2C(N)=O)CC1 [Compound 9] is lower in IC50: over 100 nM for the first, under 25 nM for the second.

CC[C@H]1CN(c2ncc(-c3ncc[nH]3)cc2Cl)CCN1C1CCN(C(C)c2ccc(Cl)cc2)CC1 (stereo partly shown) [Compound 8] and CC[C@H]1CN(c2ncc(-c3ncc[nH]3)cc2Cl)CCN1C1CCN([C@H](C)c2ccc(Cl)cc2)CC1 [Compound 5] cannot be ordered by IC50: under 25 nM for the first, under 25 nM for the second.

CC[C@H]1CN(c2ncc(-c3nccn3C(c3ccccc3)(c3ccccc3)c3ccccc3)cc2Cl)CCN1C1CCN(Cc2ccc(Cl)cc2F)CC1 [Compound 145] and CC[C@H]1CN(c2ncc(-c3ncco3)cc2Cl)CCN1C1CCN(Cc2ccc(Cl)cc2F)CC1 [Compound 140] cannot be ordered by IC50: over 100 nM for the first, over 100 nM for the second.

CC[C@H]1CN(c2ncc(-c3ncc[nH]3)cc2Cl)CCN1C1CCN(CC(=O)c2ccc(Cl)cc2)CC1 [Compound 164] and CC[C@H]1CN(c2ncc(-c3ncc[nH]3)cc2Cl)CCN1C1CCN(Cc2ccc(C(=O)O)cc2)CC1 [Compound 162] cannot be ordered by IC50: over 100 nM for the first, over 100 nM for the second.

Going from CC[C@H]1CN(c2ncc(-c3ncc[nH]3)cc2Cl)CCN1C1CCN([C@H](C(=O)N(C)C)c2ccc(Cl)cc2)CC1 [Compound 150] to CC[C@H]1CN(c2ncc(-c3ncc[nH]3)cc2Cl)CCN1C1CCN([C@@H](C(=O)OC)c2ccc(Cl)cc2)CC1 [Compound 35], the IC50 falls from over 100 nM to under 25 nM. The second is the more potent here.

First: CC[C@H]1CN(c2ncc(C3=NCCN3)cc2Cl)CCN1C1CCN(C(=O)c2ccc(C#N)cc2)CC1 [Compound 87]
Second: CC[C@H]1CN(c2ncc(C3=NCCCN3)cc2Cl)CCN1C1CCN(C(=O)c2ccc(Cl)cc2)CC1 [Compound 118]
The IC50 of the first is lower: under 25 nM for the first, 25 to 100 nM for the second.

CC[C@H]1CN(c2ncc(-c3ncc[nH]3)cc2Cl)CCN1C1CCN(Cc2ccc(Cl)cc2-c2n[nH]c(=O)o2)CC1 [Compound 57] and CC[C@H]1CN(c2ncc(-c3ncc[nH]3)cc2Cl)CCN1C1CCN(Cc2ccc(Cl)cc2-c2nnn[nH]2)CC1 [Compound 52] cannot be ordered by IC50: under 25 nM for the first, under 25 nM for the second.

CC[C@H]1CN(c2ncc(C3=NCCN3)cc2Cl)CCN1C1CCN(C(CO)c2ccc(Cl)cc2)CC1 (stereo partly shown) [Compound 15] and C[C@H]1CN(c2ncc(C3=NCCN3)cc2Cl)CCN1C1CCN(Cc2ccc(Cl)cc2)CC1 [Compound 65] cannot be ordered by IC50: under 25 nM for the first, under 25 nM for the second.

First: CC[C@H]1CN(c2ncc(C3=NCCN3)cc2Cl)CCN1C1CCN(Cc2ccc(C#CC(C)(C)NS(=O)(=O)NC(=O)OC(C)(C)C)cc2)CC1 [Compound 147]
Second: CC[C@H]1CN(c2ncc(C3=NCCN3)cc2Cl)CCN1C1CCN(C(=O)c2ccc(C#CC(C)(C)NC(=O)OC(C)(C)C)cc2)CC1 [Compound 123]
The IC50 of the first is higher: over 100 nM for the first, 25 to 100 nM for the second.

CC[C@H]1CN(c2ncc(C3=NCCN3)cc2Cl)CCN1C1CCN(C(=O)c2ccc(Cl)nc2N)CC1 [Compound 42] and CC[C@H]1CN(c2ncc(C3=NC(C)CN3)cc2Cl)CCN1C1CCN(C(=O)c2ccc(Cl)cc2N)CC1 (stereo partly shown) [Compound 45] cannot be ordered by IC50: under 25 nM for the first, under 25 nM for the second.

First: CC[C@H]1CN(c2ncc(-c3ncc[nH]3)cc2Cl)CCN1C1CCN(C(=O)c2ccc(C(=O)OC)cc2)CC1 [Compound 71]
Second: CC[C@H]1CN(c2ncc(-c3ncc[nH]3)cc2Cl)CCN1C1CCN(C(=O)c2ccc(C(C)=O)cc2)CC1 [Compound 111]
The IC50 of the first is lower: under 25 nM for the first, 25 to 100 nM for the second. The first is the more potent here.

First: CC[C@H]1CN(c2ncc(-c3ncc[nH]3)cc2Cl)CCN1C1CCN(C(=O)c2ccc(-n3c(C)ccc3C)cc2)CC1 [Compound 136]
Second: CC[C@H]1CN(c2ncc(-c3ncc[nH]3)cc2Cl)CCN1C1CCN(C(=O)c2ccc(-n3cccn3)cc2)CC1 [Compound 102]
The IC50 of the first is higher: over 100 nM for the first, 25 to 100 nM for the second.

Going from CC[C@H]1CN(c2ncc(-c3nc(C(O)C(F)(F)F)cn3C(O)C(F)(F)F)cc2Cl)CCN1C1CCN(C(=O)c2ccc(Cl)cc2)CC1 (stereo partly shown) [Compound 163] to CC[C@H]1CN(c2ncc(C3=NC(C)CN3)cc2Cl)CCN1C1CCN(C(=O)c2ccc(Cl)cc2)CC1 (stereo partly shown) [Compound 72], the IC50 falls from over 100 nM to under 25 nM.

Fc1cc(Cl)ccc1CN1CCC(N2CCN(c3ncc(-c4ncc[nH]4)cc3Cl)CC2C2CC2)CC1 (stereo not shown) [Compound 77] and C[C@@H]1CN(C2CCN(Cc3ccc(Cl)cc3F)CC2)[C@@H](C)CN1c1ncc(-c2ncc[nH]2)cc1Cl [Compound 79] cannot be ordered by IC50: under 25 nM for the first, under 25 nM for the second.

CC[C@H]1CN(c2ncc(-c3ncc[nH]3)cc2Cl)CCN1C1CCN(Cc2ccc(-n3cncn3)cc2)CC1 [Compound 76] and CC[C@H]1CN(c2ncc(-c3ncc[nH]3)cc2Cl)CCN1C1CCN(Cc2ccc(Br)cc2)CC1 [Compound 2] cannot be ordered by IC50: under 25 nM for the first, under 25 nM for the second.

CC[C@H]1CN(c2ncc(-c3ncc[nH]3)cc2Cl)CCN1C1CCN(C(=O)c2ccc(C#N)nc2)CC1 [Compound 68] and CC[C@H]1CN(c2ncc(-c3ncc[nH]3)cc2Cl)CCN1C1CCN(C(=O)c2ccc(C#N)cc2)CC1 [Compound 74] cannot be ordered by IC50: under 25 nM for the first, under 25 nM for the second.

CC[C@H]1CN(c2ncc(-c3nc(C(O)C(F)(F)F)c[nH]3)cc2Cl)CCN1C1CCN(Cc2ccc(Cl)cc2F)CC1 (stereo partly shown) [Compound 80] and CC[C@H]1CN(c2ncc(-c3nnc[nH]3)cc2Cl)CCN1C1CCN(Cc2ccc(Cl)cc2F)CC1 [Compound 69] cannot be ordered by IC50: under 25 nM for the first, under 25 nM for the second.

First: CC[C@H]1CN(c2ncc(-c3ncc[nH]3)cc2Cl)CCN1C1CCN(Cc2ccc(C#CC(C)(C)NS(C)(=O)=O)cc2)CC1 [Compound 137]
Second: CC[C@H]1CN(c2ncc(-c3ncc[nH]3)cc2Cl)CCN1C1CCN(Cc2ccc(C#CCOC)cc2)CC1 [Compound 14]
The IC50 of the first is higher: over 100 nM for the first, under 25 nM for the second.

First: CC[C@H]1CN(c2ncc(-c3nnc(N)o3)cc2C)[C@H](C)CN1C1CCN(Cc2ccc(OC(F)(F)F)cc2)CC1 [Compound 174]
Second: CC[C@H]1CN(c2ncc(-c3nnc(CO)o3)cc2Cl)CCN1C1CCN(Cc2ccc(Cl)cc2F)CC1 [Compound 106]
The IC50 of the first is lower: under 25 nM for the first, 25 to 100 nM for the second. The first is the more potent here.

Compared with CC[C@H]1CN(c2ncc(-c3ncc[nH]3)cc2Cl)CCN1C1CCN(C(=O)c2ccc(Br)cc2)CC1 [Compound 41], CC[C@H]1CN(c2ncc(-c3ncc[nH]3)cc2Cl)CCN1C1CCN(C(=O)c2ccc(C#CC(C)(C)NC(=O)OC(C)(C)C)cc2)CC1 [Compound 142] is higher in IC50: under 25 nM for the first, over 100 nM for the second.

Compared with CC[C@H]1CN(c2ncc(-c3ncc[nH]3)cc2Cl)CCN1C1CCN(CCCCc2ccc(Cl)cc2)CC1 [Compound 103], CC[C@H]1CN(c2ncc(-c3ncc[nH]3)cc2Cl)CCN1C1CCN(Cc2ccc3[nH]ccc3c2)CC1 [Compound 138] is higher in IC50: 25 to 100 nM for the first, over 100 nM for the second.

Compared with CC[C@H]1CN(c2ncc(-c3nccn3CCC(=O)c3ccc(Cl)cc3)cc2Cl)CCN1C1CCN(CCC(=O)c2ccc(Cl)cc2)CC1 [Compound 165], CC[C@H]1CN(c2ncc(-c3ncc[nH]3)cc2Cl)CCN1C1CCN(Cc2ccc(Cl)cc2C(=O)OC)CC1 [Compound 50] is lower in IC50: over 100 nM for the first, under 25 nM for the second. The second is the more potent here.

CC[C@H]1CN(c2ncc(C3NC(=O)NC3=O)cc2Cl)CCN1C1CCN(Cc2ccc(Cl)cc2)CC1 (stereo partly shown) [Compound 119] and CC[C@H]1CN(c2ncc(-c3ncc[nH]3)cc2Cl)CCN1C1CCN([C@@H](C(=O)NCC2CC2)c2ccc(Cl)cc2)CC1 [Compound 107] fall in the same range of IC50: 25 to 100 nM for the first, 25 to 100 nM for the second.

With CC[C@H]1CN(c2ncc(-c3ncc[nH]3)cc2Cl)CCN1C1(C)CCN(C(C(=O)OC)c2ccc(Cl)cc2)CC1 (stereo partly shown) [Compound 128] the IC50 was 25 to 100 nM.
